Earlier results on one molecule are cited in patent US20240238442A1, “LIPOSOMES DISPLAYING A GLYCAN LIGAND FOR CD33 AND THEIR USE IN THE TREATMENT OF ALZHEIMER'S DISEASE” (THE GOVERNORS OF THE UNIVERSITY OF ALBERTA, priority 2021, published 2024).

This data set addresses CD33 (Homo sapiens, UniProt P20138). The note with it: free ligand.

Chain of CD33 (P20138 18-364): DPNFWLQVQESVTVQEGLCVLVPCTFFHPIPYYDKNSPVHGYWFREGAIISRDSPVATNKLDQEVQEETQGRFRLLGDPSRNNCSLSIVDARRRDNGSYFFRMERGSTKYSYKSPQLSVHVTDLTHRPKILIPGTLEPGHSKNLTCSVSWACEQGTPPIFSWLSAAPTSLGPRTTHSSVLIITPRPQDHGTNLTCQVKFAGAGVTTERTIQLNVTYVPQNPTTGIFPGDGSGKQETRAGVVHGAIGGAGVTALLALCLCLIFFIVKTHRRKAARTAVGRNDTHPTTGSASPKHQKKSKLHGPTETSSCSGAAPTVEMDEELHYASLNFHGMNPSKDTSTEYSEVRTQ

Regarding `Cc1cc(C(=O)NC[C@@H](O)CC2O[C@@](OCC3OC(O[C@@H]4C(CO)O[C@@H](OCCN)C(O)C4O)C(O)C(O)[C@H]3O)(C(=O)O)CC(O)[C@H]2C(O)NC(=O)Cn2cc(C3CCCCC3)nn2)cc(C)c1O` (stereo partly shown) [CD33L], the Kd was 87 µM.
